Activity calls are given as the source filed them.
Tests used:
Assay type in all cases: functional, cell-based
Conditions in all cases: Homo sapiens
PBMC [1] = experiment: Upregulation of TLR transcription in PBMC from Alzheimer's disease patient
PBMC [2] = experiment: Increase in TLR4 protein expression in PBMC from Alzheimer's disease patient at 0.1 uM by flow cytometry
Macrophage = experiment: Induction of amyloid beta phagocytosis in macrophages from Alzheimer's disease patient at 0.1 uM
PBMC [3] = experiment: Increase in TLR2 protein expression in PBMC from Alzheimer's disease patient at 0.1 uM by flow cytometry
PBMC [4] = experiment: Upregulation of MGAT3 transcription in PBMC from Alzheimer's disease patient
PBMC [5] = experiment: Increase in TLR3 protein expression in PBMC from Alzheimer's disease patient at 0.1 uM by flow cytometry

Measured: Activity

O=C(/C=C/c1ccc(O)cc1)CC(=O)/C=C/c1ccc(O)cc1
active: all assays above

Reference: ChEMBL document CHEMBL1147052, “Innate immunity and transcription of MGAT-III and Toll-like receptors in Alzheimer's disease patients are improved by bisdemethoxycurcumin” (Proc Natl Acad Sci U S A, 2007)
